Assay results from article doi:10.1101/2023.04.18.537371v1 (bioRxiv, 2023).
Peptide text beside a SMILES is read from it.

What was measured:
[1] = Tissue distribution in SD rats after single subcutaneous injection; type: in vivo, SD rat
[2] = Plasma stability; type: in vitro ADME, SD rat
[3] = Metabolite identification in liver microsomes; type: in vitro ADME; settings: human liver microsomes, 10 μM, 37 °C, 120 min, NADPH
[4] = target: T1, CYP2C19 (Homo sapiens, UniProt P33261); test: CYP450 inhibition assay; type: in vitro ADME
[5] = target: CYP2D6 (Homo sapiens, UniProt P10635); test: CYP450 inhibition assay; type: in vitro ADME
[6] = target: T2, CYP2C8 (Homo sapiens, UniProt P10632); test: CYP time-dependent inhibition assay; type: in vitro ADME
T2 sequence (P10632 1-490): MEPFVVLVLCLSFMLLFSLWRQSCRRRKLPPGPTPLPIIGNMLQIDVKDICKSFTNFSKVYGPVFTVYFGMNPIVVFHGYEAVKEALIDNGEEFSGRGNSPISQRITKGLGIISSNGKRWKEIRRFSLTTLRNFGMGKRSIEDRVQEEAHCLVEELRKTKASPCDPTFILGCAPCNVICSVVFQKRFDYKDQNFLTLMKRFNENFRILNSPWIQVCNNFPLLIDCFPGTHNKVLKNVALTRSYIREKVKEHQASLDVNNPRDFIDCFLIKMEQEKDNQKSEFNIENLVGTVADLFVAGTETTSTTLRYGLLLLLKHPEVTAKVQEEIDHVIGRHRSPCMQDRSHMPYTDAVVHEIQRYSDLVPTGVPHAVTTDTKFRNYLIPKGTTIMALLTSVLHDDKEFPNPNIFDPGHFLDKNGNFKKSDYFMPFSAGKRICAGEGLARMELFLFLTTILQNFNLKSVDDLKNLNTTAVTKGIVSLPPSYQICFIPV

[7] = target: T1, CYP2C19; test: CYP time-dependent inhibition assay; type: in vitro ADME
[8] = tested on: CYP2B6; type: in vitro ADME; settings: cryopreserved human hepatocytes, three donors, 0.100 to 15.0 μM, 48 h, 37°C
[9] = tested on: human hepatocytes; test: Concentration change of FC-12738 in the CYP induction assay; type: in vitro ADME; settings: 24 hours, 37°C
[10] = target: P-gp (Homo sapiens, UniProt P08183); test: Inhibition of P-gp in Caco-2 cells; type: in vitro ADME
[11] = target: BCRP (Homo sapiens, UniProt Q9UNQ0); test: Inhibition of BCRP in Caco-2 cells; type: in vitro ADME
[12] = kidney, male SD rats, SC 10 mg/kg single
[13] = large intestine, male SD rats, SC 10 mg/kg single
[14] = liver, male SD rats, SC 10 mg/kg single
[15] = lung, male SD rats, SC 10 mg/kg single
[16] = male, SD, rat, fat, sc, 10 mg/kg
[17] = male, SD, rat, heart, sc, 10 mg/kg
[18] = male, SD, rat, kidney, sc, 10 mg/kg
[19] = male, SD, rat, large intestine, sc, 10 mg/kg
[20] = male, SD, rat, liver, sc, 10 mg/kg
[21] = male, SD, rat, lung, sc, 10 mg/kg
[22] = male, SD, rat, muscle, sc, 10 mg/kg
[23] = male, SD, rat, plasma, sc, 10 mg/kg
[24] = male, SD, rat, small intestine, sc, 10 mg/kg
[25] = male, SD, rat, spleen, sc, 10 mg/kg
[26] = male, SD, rat, stomach, sc, 10 mg/kg
[27] = muscle, male SD rats, SC 10 mg/kg single
[28] = small intestine, male SD rats, SC 10 mg/kg single
[29] = spleen, male SD rats, SC 10 mg/kg single
[30] = stomach, male SD rats, SC 10 mg/kg single
[31] = cutoff IC50 shift >= 1.5-fold, 30 min pre-incubation ± NADPH

T1 sequence (P33261 whole entry): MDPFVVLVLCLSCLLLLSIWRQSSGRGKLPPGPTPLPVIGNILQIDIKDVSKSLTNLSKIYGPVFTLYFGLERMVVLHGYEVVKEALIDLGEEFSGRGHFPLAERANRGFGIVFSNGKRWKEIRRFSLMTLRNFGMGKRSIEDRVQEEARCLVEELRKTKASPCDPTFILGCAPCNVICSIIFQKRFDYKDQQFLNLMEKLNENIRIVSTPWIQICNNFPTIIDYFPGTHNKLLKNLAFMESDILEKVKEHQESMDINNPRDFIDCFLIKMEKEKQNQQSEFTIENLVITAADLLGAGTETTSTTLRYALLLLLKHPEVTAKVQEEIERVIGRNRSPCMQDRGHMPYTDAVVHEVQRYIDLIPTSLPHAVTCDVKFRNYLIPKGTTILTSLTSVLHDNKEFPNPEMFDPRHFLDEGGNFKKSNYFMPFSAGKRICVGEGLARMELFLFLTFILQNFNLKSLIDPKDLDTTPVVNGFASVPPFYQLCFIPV
Chain of P-gp (P08183 whole entry): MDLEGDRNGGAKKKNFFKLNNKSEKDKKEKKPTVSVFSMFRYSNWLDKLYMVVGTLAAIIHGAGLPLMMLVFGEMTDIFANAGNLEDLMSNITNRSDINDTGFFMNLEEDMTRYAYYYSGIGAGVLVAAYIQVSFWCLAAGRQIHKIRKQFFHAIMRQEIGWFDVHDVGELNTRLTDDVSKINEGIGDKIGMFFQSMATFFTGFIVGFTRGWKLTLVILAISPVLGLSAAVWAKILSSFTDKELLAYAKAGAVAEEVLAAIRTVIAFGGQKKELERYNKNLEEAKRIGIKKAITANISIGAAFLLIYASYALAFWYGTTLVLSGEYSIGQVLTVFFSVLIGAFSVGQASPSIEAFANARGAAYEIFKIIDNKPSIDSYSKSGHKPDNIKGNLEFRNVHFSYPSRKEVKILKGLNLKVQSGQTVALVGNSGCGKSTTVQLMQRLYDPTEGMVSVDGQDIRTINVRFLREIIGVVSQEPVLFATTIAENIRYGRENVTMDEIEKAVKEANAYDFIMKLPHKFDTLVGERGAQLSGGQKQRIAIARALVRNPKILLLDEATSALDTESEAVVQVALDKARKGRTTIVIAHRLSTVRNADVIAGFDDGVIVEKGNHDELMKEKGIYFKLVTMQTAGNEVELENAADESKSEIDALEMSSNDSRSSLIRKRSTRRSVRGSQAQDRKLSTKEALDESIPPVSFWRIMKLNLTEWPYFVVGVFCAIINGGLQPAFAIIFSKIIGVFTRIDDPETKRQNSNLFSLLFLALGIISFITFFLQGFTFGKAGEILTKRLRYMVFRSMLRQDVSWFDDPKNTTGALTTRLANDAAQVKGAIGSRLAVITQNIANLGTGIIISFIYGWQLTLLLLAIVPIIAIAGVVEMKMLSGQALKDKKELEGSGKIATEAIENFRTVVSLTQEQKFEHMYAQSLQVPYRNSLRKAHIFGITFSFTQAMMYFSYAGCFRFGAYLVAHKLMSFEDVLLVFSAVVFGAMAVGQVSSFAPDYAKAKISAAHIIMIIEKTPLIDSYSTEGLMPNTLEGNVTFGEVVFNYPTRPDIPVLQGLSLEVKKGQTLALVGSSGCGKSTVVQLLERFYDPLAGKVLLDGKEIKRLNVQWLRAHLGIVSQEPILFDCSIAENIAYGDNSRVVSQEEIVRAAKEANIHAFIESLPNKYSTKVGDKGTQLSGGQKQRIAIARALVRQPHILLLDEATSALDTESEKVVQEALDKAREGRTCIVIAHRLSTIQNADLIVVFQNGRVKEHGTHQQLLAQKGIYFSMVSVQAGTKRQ
Chain of BCRP (Q9UNQ0 whole entry): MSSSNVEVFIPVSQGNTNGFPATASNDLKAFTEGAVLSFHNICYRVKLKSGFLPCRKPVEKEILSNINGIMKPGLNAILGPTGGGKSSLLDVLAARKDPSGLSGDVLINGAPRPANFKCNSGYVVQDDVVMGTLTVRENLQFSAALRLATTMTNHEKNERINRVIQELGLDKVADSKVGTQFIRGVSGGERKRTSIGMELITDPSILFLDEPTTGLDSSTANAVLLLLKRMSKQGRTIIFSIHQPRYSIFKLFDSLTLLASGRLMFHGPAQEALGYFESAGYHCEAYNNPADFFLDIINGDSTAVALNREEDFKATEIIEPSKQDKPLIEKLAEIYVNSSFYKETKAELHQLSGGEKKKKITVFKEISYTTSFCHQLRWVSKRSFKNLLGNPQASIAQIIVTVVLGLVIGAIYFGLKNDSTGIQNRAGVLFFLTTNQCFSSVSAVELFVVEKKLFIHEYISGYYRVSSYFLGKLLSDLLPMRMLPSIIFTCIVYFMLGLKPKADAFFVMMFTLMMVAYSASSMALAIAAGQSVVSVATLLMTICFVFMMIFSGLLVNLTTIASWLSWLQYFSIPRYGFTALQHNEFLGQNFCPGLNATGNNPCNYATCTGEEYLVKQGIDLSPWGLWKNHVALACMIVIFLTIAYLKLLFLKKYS
Chain of CYP2D6 (P10635 whole entry): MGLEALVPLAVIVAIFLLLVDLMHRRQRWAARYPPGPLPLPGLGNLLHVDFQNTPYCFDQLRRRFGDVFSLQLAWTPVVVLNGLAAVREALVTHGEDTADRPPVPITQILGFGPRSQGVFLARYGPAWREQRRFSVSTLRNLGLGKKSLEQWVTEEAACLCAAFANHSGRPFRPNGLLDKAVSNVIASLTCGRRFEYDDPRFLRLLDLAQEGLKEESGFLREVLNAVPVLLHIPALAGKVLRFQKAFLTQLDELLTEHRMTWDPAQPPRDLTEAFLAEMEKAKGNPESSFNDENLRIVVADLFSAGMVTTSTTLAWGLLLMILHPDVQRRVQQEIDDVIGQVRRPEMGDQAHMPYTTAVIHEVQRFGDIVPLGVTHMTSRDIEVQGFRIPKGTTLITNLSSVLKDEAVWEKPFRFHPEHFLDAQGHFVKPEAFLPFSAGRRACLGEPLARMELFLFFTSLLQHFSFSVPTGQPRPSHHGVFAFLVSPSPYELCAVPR

For `CC(C)[C@@H](NC(=O)[C@H](N)Cc1ccc(O)cc1)C(=O)N[C@H](CC(=O)O)C(=O)N[C@H](CCCCN)C(=O)N[C@H](CCCNC(=N)N)C(=O)O` [FC-12738, (D-Tyr)-(D-Val)-(D-Asp)-(D-Lys)-(D-Arg)] (HELM PEPTIDE1{[dY].[dV].[dD].[dK].[dR]}$$$$V2.0), the AUC0-last [1, 12] was 135000 ng·h/g, the Cmax [1, 12] was 28500 ng/g and the Tmax [1, 12] was 30 min. It also gave an AUC0-last [1, 13] of 4040 ng·h/g, a Cmax [1, 13] of 2150 ng/g and a Tmax [1, 13] of 30 min. For the same compound, the AUC0-last [1, 14] was 4190 ng·h/g, the Cmax [1, 14] was 1270 ng/g and the Tmax [1, 14] was 30 min. For the same compound, the AUC0-last [1, 15] was 6840 ng·h/g, the Cmax [1, 15] was 5330 ng/g and the Tmax [1, 15] was 30 min. For the same compound, the “Tolerability / adverse effects in-life” value ([1]; male SD rats, SC 10 mg/kg single, tissue distribution study) was “No adverse effect was observed”, the tissue level at time at 0.5 h ([1]; male, SD, rat, brain, sc, 10 mg/kg) was 128 ng/g and the tissue level at time at 0.5 h [1, 16] was 1070 ng/g. The tissue level at time at 2 h [1, 16] was 103 ng/g, the tissue level at time at 0.5 h [1, 17] was 2150 ng/g and the tissue level at time at 2 h [1, 17] was 365 ng/g. It also gave a tissue level at time at 0.5 h [1, 18] of 28500 ng/g, a tissue level at time at 2 h [1, 18] of 17300 ng/g and a tissue level at time at 8 h [1, 18] of 14300 ng/g. For the same compound, the tissue level at time at 0.5 h [1, 19] was 2150 ng/g, the tissue level at time at 2 h [1, 19] was 430 ng/g and the tissue level at time at 8 h [1, 19] was 226 ng/g. The tissue level at time at 0.5 h [1, 20] was 1270 ng/g, the tissue level at time at 2 h [1, 20] was 616 ng/g and the tissue level at time at 8 h [1, 20] was 269 ng/g. For the same compound, the tissue level at time at 0.5 h [1, 21] was 5330 ng/g, the tissue level at time at 2 h [1, 21] was 752 ng/g and the tissue level at time at 8 h [1, 21] was 109 ng/g. It also gave a tissue level at time at 0.5 h [1, 22] of 1490 ng/g, a tissue level at time at 2 h [1, 22] of 191 ng/g and a tissue level at time at 8 h [1, 22] of 46.4 ng/g. It also gave an AUC(0-t) [1, 23] of 14400 ng·h/mL, a Cmax [1, 23] of 14200 ng/mL and a Tmax [1, 23] of 30 min. It also gave a level at 0.5 h [1, 23] of 14200 ng/mL, a level at 2 h [1, 23] of 1790 ng/mL and a level at 8 h [1, 23] of 5.04 ng/mL. The tissue level at time at 0.5 h [1, 24] was 2060 ng/g, the tissue level at time at 2 h [1, 24] was 775 ng/g and the tissue level at time at 8 h [1, 24] was 188 ng/g. It also gave a tissue level at time at 0.5 h [1, 25] of 1490 ng/g, a tissue level at time at 2 h [1, 25] of 345 ng/g and a tissue level at time at 8 h [1, 25] of 239 ng/g. It also gave a tissue level at time at 0.5 h [1, 26] of 3370 ng/g, a tissue level at time at 2 h [1, 26] of 555 ng/g and a tissue level at time at 8 h [1, 26] of 96.7 ng/g. For the same compound, the AUC0-last [1, 27] was 1930 ng·h/g, the Cmax [1, 27] was 1490 ng/g and the Tmax [1, 27] was 30 min. It also gave an AUC0-last [1, 28] of 4970 ng·h/g, a Cmax [1, 28] of 2060 ng/g and a Tmax [1, 28] of 30 min. It also gave an AUC0-last [1, 29] of 3280 ng·h/g, a Cmax [1, 29] of 1490 ng/g and a Tmax [1, 29] of 30 min. It also gave an AUC0-last [1, 30] of 4760 ng·h/g, a Cmax [1, 30] of 3370 ng/g and a Tmax [1, 30] of 30 min. For the same compound, the half-life ([2]; SD rat plasma, 2.00 μM, 37.0 °C, up to 120 min) was over 372.7 min, the remaining at 10 min, 2 μM ([2]; SD, rat, plasma) was 104% and the remaining at 0.5 h, 2 μM ([2]; SD, rat, plasma) was 102%. The remaining at 1 h, 2 μM ([2]; SD, rat, plasma) was 113%, the remaining at 2 h, 2 μM ([2]; SD, rat, plasma) was 104% and the Metabolites detected [3] was “No metabolites of FC-12738 were detected”. For the same compound, the “Relative Abundance (MS Peak Area %Total)” value ([3]; LC-UV-MS) was 100.00%, the IC50 [4] was over 100 µM and the IC50 [5] was over 100 µM. The IC50 [6] was over 100 µM, the “Time-dependent inhibition of CYP2C8” value [6, 31] was “no time-dependent inhibition” and the IC50 [7] was over 100 µM. For the same compound, the “Time-dependent inhibition of CYP2C19” value [7, 31] was “no time-dependent inhibition”, the “Induction of CYP2B6 (enzyme activity and gene expression)” value [8] was “not considered as an inducer” and the “% remaining” value ([9]; human hepatocytes Donor 1, 10.0 μM) was 69.1%. For the same compound, the “% remaining” value ([9]; human hepatocytes Donor 2, 15.0 μM) was 89.3%, the “% remaining” value ([9]; human hepatocytes Donor 3, 10.0 μM) was 61.0% and the IC50 [10] was over 100 µM. It also gave an IC50 [11] of over 100 µM.
